Results from patent publication US8192962B2, “Processes for detecting toxic substances” (Daikin Industries, Ltd., priority 2001, dated 2012).

Test system: Unknown protein yeast genes
Assay: DNA chip mRNA expression in yeast, unknown protein yeast genes (Table 1)
Type: cell-based, Saccharomyces cerevisiae S288C
Procedure, shortened: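 Whole-genome yeast DNA chip hybridization (65° C., >12 h) of Cy-labeled cDNA from S288C cells exposed 2 h at 25° C. to a sub-lethal toxicant dose in YPD; value is intensity relative to chemical-free control.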

## COc1cc(CNC(=O)CCCCC=CC(C)C)ccc1O [(12), 8-methyl-N-vanillyl-6-nonenamide]
Yeast gene YKL086W, incubated two hours with chemical substance
  The level of expressed mRNA in the presence of chemical substance/The level of expressed mRNA in the absence of chemical substance: 0.6
Yeast gene YKL151C, incubated two hours with chemical substance
  The level of expressed mRNA in the presence of chemical substance/The level of expressed mRNA in the absence of chemical substance: 1.0
Yeast gene YKL153W, incubated two hours with chemical substance
  The level of expressed mRNA in the presence of chemical substance/The level of expressed mRNA in the absence of chemical substance: 1.1
Yeast gene YKL195W, incubated two hours with chemical substance
  The level of expressed mRNA in the presence of chemical substance/The level of expressed mRNA in the absence of chemical substance: 1.1
Yeast gene YKR091W, incubated two hours with chemical substance
  The level of expressed mRNA in the presence of chemical substance/The level of expressed mRNA in the absence of chemical substance: 0.9
Yeast gene YLR054C, incubated two hours with chemical substance
  The level of expressed mRNA in the presence of chemical substance/The level of expressed mRNA in the absence of chemical substance: 1.1
Yeast gene YLR149C, incubated two hours with chemical substance
  The level of expressed mRNA in the presence of chemical substance/The level of expressed mRNA in the absence of chemical substance: 2.0
Yeast gene YLR152C, incubated two hours with chemical substance
  The level of expressed mRNA in the presence of chemical substance/The level of expressed mRNA in the absence of chemical substance: 1.0
Yeast gene YLR194C, incubated two hours with chemical substance
  The level of expressed mRNA in the presence of chemical substance/The level of expressed mRNA in the absence of chemical substance: 1.6
Yeast gene YLR324W, incubated two hours with chemical substance
  The level of expressed mRNA in the presence of chemical substance/The level of expressed mRNA in the absence of chemical substance: 0.8
Yeast gene YLR350W, incubated two hours with chemical substance
  The level of expressed mRNA in the presence of chemical substance/The level of expressed mRNA in the absence of chemical substance: 1.8
Yeast gene YLR387C, incubated two hours with chemical substance
  The level of expressed mRNA in the presence of chemical substance/The level of expressed mRNA in the absence of chemical substance: 1.1
Yeast gene YLR460C
  The level of expressed mRNA in the presence of chemical substance/The level of expressed mRNA in the absence of chemical substance: 0.4
Yeast gene YML117W, incubated two hours with chemical substance
  The level of expressed mRNA in the presence of chemical substance/The level of expressed mRNA in the absence of chemical substance: 0.8
Yeast gene YMR009W, incubated two hours with chemical substance
  The level of expressed mRNA in the presence of chemical substance/The level of expressed mRNA in the absence of chemical substance: 0.6
Yeast gene YMR067C, incubated two hours with chemical substance
  The level of expressed mRNA in the presence of chemical substance/The level of expressed mRNA in the absence of chemical substance: 1.1
Yeast gene YMR090W
  The level of expressed mRNA in the presence of chemical substance/The level of expressed mRNA in the absence of chemical substance: 2.2
Yeast gene YMR095C, incubated two hours with chemical substance
  The level of expressed mRNA in the presence of chemical substance/The level of expressed mRNA in the absence of chemical substance: 0.8
Yeast gene YMR097C, incubated two hours with chemical substance
  The level of expressed mRNA in the presence of chemical substance/The level of expressed mRNA in the absence of chemical substance: 1.2
Yeast gene YMR102C, incubated two hours with chemical substance
  The level of expressed mRNA in the presence of chemical substance/The level of expressed mRNA in the absence of chemical substance: 2.4
Yeast gene YMR107W, incubated two hours with chemical substance
  The level of expressed mRNA in the presence of chemical substance/The level of expressed mRNA in the absence of chemical substance: 0.8
Yeast gene YMR180C, incubated two hours with chemical substance
  The level of expressed mRNA in the presence of chemical substance/The level of expressed mRNA in the absence of chemical substance: 1.2
Yeast gene YMR184W, incubated two hours with chemical substance
  The level of expressed mRNA in the presence of chemical substance/The level of expressed mRNA in the absence of chemical substance: 1.7
Yeast gene YMR191W, incubated two hours with chemical substance
  The level of expressed mRNA in the presence of chemical substance/The level of expressed mRNA in the absence of chemical substance: 1.8
Yeast gene YMR295C, incubated two hours with chemical substance
  The level of expressed mRNA in the presence of chemical substance/The level of expressed mRNA in the absence of chemical substance: 1.1
Yeast gene YMR316W, incubated two hours with chemical substance
  The level of expressed mRNA in the presence of chemical substance/The level of expressed mRNA in the absence of chemical substance: 1.9
Yeast gene YNL044W, incubated two hours with chemical substance
  The level of expressed mRNA in the presence of chemical substance/The level of expressed mRNA in the absence of chemical substance: 1.0
Yeast gene YNL074C, incubated two hours with chemical substance
  The level of expressed mRNA in the presence of chemical substance/The level of expressed mRNA in the absence of chemical substance: 0.9
Yeast gene YNL092W, incubated two hours with chemical substance
  The level of expressed mRNA in the presence of chemical substance/The level of expressed mRNA in the absence of chemical substance: 1.1
Yeast gene YNL115C, incubated two hours with chemical substance
  The level of expressed mRNA in the presence of chemical substance/The level of expressed mRNA in the absence of chemical substance: 0.8
Yeast gene YNL156C, incubated two hours with chemical substance
  The level of expressed mRNA in the presence of chemical substance/The level of expressed mRNA in the absence of chemical substance: 0.9
Yeast gene YNL234W, incubated two hours with chemical substance
  The level of expressed mRNA in the presence of chemical substance/The level of expressed mRNA in the absence of chemical substance: 1.1
Yeast gene YNL281W, incubated two hours with chemical substance
  The level of expressed mRNA in the presence of chemical substance/The level of expressed mRNA in the absence of chemical substance: 0.7
Yeast gene YNL305C, incubated two hours with chemical substance
  The level of expressed mRNA in the presence of chemical substance/The level of expressed mRNA in the absence of chemical substance: 1.1
Yeast gene YNR068C, incubated two hours with chemical substance
  The level of expressed mRNA in the presence of chemical substance/The level of expressed mRNA in the absence of chemical substance: 1.3
Yeast gene YOL032W, incubated two hours with chemical substance
  The level of expressed mRNA in the presence of chemical substance/The level of expressed mRNA in the absence of chemical substance: 1.0
Yeast gene YOL036W, incubated two hours with chemical substance
  The level of expressed mRNA in the presence of chemical substance/The level of expressed mRNA in the absence of chemical substance: 1.0
Yeast gene YOL047C, incubated two hours with chemical substance
  The level of expressed mRNA in the presence of chemical substance/The level of expressed mRNA in the absence of chemical substance: 0.8
Yeast gene YOL071W, incubated two hours with chemical substance
  The level of expressed mRNA in the presence of chemical substance/The level of expressed mRNA in the absence of chemical substance: 1.0
Yeast gene YOL082W, incubated two hours with chemical substance
  The level of expressed mRNA in the presence of chemical substance/The level of expressed mRNA in the absence of chemical substance: 1.0
Yeast gene YOL083W, incubated two hours with chemical substance
  The level of expressed mRNA in the presence of chemical substance/The level of expressed mRNA in the absence of chemical substance: 1.2
Yeast gene YOL117W, incubated two hours with chemical substance
  The level of expressed mRNA in the presence of chemical substance/The level of expressed mRNA in the absence of chemical substance: 0.9
Yeast gene YOL131W, incubated two hours with chemical substance
  The level of expressed mRNA in the presence of chemical substance/The level of expressed mRNA in the absence of chemical substance: 0.9
Yeast gene YOL150C
  The level of expressed mRNA in the presence of chemical substance/The level of expressed mRNA in the absence of chemical substance: 2.9
Yeast gene YOL162W, incubated two hours with chemical substance
  The level of expressed mRNA in the presence of chemical substance/The level of expressed mRNA in the absence of chemical substance: 1.4
Yeast gene YOR019W, incubated two hours with chemical substance
  The level of expressed mRNA in the presence of chemical substance/The level of expressed mRNA in the absence of chemical substance: 1.0
Yeast gene YOR129C
  The level of expressed mRNA in the presence of chemical substance/The level of expressed mRNA in the absence of chemical substance: 0.6
Yeast gene YOR197W, incubated two hours with chemical substance
  The level of expressed mRNA in the presence of chemical substance/The level of expressed mRNA in the absence of chemical substance: 1.0
Yeast gene YPL087W, incubated two hours with chemical substance
  The level of expressed mRNA in the presence of chemical substance/The level of expressed mRNA in the absence of chemical substance: 1.8
Yeast gene YPL196W, incubated two hours with chemical substance
  The level of expressed mRNA in the presence of chemical substance/The level of expressed mRNA in the absence of chemical substance: 0.9
Yeast gene YPL206C, incubated two hours with chemical substance
  The level of expressed mRNA in the presence of chemical substance/The level of expressed mRNA in the absence of chemical substance: 0.8
Yeast gene YPL222W, incubated two hours with chemical substance
  The level of expressed mRNA in the presence of chemical substance/The level of expressed mRNA in the absence of chemical substance: 1.3
Yeast gene YPR023C, incubated two hours with chemical substance
  The level of expressed mRNA in the presence of chemical substance/The level of expressed mRNA in the absence of chemical substance: 0.9
Yeast gene YPR151C, incubated two hours with chemical substance
  The level of expressed mRNA in the presence of chemical substance/The level of expressed mRNA in the absence of chemical substance: 0.9
